Measurements reported in patent US20240300980A1, “HETEROCYCLIC COMPOUNDS AS KRAS INHIBITOR, AND PREPARATION THEREFOR AND USE THEREOF IN TREATMENT” (SHANGHAI KECHOW PHARMA, INC., priority 2021, published 2024).
Read-outs that look alike come from different tables or passages of the source.

Test system: AGS cells (KRAS^G12D)
Experiment: Detection of cell proliferation in vitro by MTT/MTS method (cell activity experiment)
Assay type: cell-based
Settings: AGS cells, MTT/MTS, 3 days of drug treatment, read-out: AGS IC50
Summary of the method: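 KRAS G12D AGS cells seeded at 1000 per well, compound added 24 h later, 0.5% final DMSO. Viability read after 3 days of treatment by MTT (solubilised in DMSO) or MTS, 4 h, absorbance 490 nm. IC50 from dose–response curves versus DMSO control.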

| IC50 | SMILES | IC50 (Homo sapiens, AGS, 72 h) |
| --- | --- | --- |
| – | Oc1cc(Cl)c(C2CC2)c(-c2ncc3c(N4C[C@H]5CC[C@@H](C4)N5)nc(OCC4(CN5CCCC5)CC4)nc3c2F)c1 [Example 10, 3-(4-((1R,5S)-3,8-diazabicyclo[3.2.1]octan-3-yl)-8-fluoro-2-((1-(pyrrolidin-1-ylmethyl)cyclopropyl)methoxy)pyrido[4,3-d]pyrimidin-7-yl)-5-chloro-4-cyclopropylphenol] | 17 nM |
| – | N#Cc1c(OC[C@@]23CCCN2C[C@H](F)C3)nc2c(F)c(-c3cc(O)cc4ccc(F)c(F)c34)ncc2c1N1C[C@H]2CC[C@@H](C1)N2 [Example 193, 4-((1R,5S)-3,8-diazabicyclo[3.2.1]octan-3-yl)-7-(7,8-difluoro-3-hydroxynaphthalen-1-yl)-8-fluoro-2-(((2R,7aS)-2-fluorotetrahydro-1H-pyrrolizin-7a(5H)-yl)methoxy)-1,6-naphthyridine-3-carbonitrile] | 125 nM |
| > 2500 nM | C#Cc1c(F)ccc2cc(O)cc(-c3ccc4c(N5C[C@H]6CC[C@@H](C5)[C@@H]6C#N)nc(OC[C@@]56CCCN5C[C@H](F)C6)nc4c3F)c12 [Example 127, (1R,5S,8S)-3-(7-(8-ethynyl-7-fluoro-3-hydroxynaphthalen-1-yl)-8-fluoro-2-(((2R,7aS)-2-fluorotetrahydro-1H-pyrrolizin-7a(5H)-yl)methoxy)quinazolin-4-yl)-3-azabicyclo [3.2.1]octane-8-carbonitrile] | – |
| – | Oc1cc(-c2ccc3c(N4C[C@H]5CC[C@@H](C4)S5)nc(OC[C@@]45CCCN4C[C@H](F)C5)nc3c2F)c2c(F)c(F)ccc2c1 [Example 164, 4-(4-((1R,5S)-8-thia-3-azabicyclo[3.2.1]octan-3-yl)-8-fluoro-2-(((2R,7aS)-2-fluorotetrahydro-1H-pyrrolizin-7a(5H)-yl)methoxy)quinazolin-7-yl)-5,6-difluoronaphthalen-2-ol] | 300 nM |
| – | CSC1CCCc2cc(O)cc(-c3ncc4c(N5C[C@H]6CC[C@@H](C5)N6)nc(OC[C@@]56CCCN5C[C@H](F)C6)nc4c3F)c21 (stereo partly drawn) [Example 426, 4-(4-((1R,5S)-3,8-diazabicyclo[3.2.1]octan-3-yl)-8-fluoro-2-(((2R,7aS)-2-fluorotetrahydro-1H-pyrrolizin-7a(5H)-yl)methoxy)pyrido[4,3-d]pyrimidin-7-yl)-5-(methylthio)-5,6,7,8-tetrahydronaphthalen-2-ol] | 15 nM |
| – | C#Cc1cccc2cc(O)cc(-c3ncc4c(N5C[C@H]6CC[C@@H](C5)N6)nc(OCC5(CN6CCCC6)CC5)nc4c3F)c12 [Example 1, 4-(4-((1R,5S)-3,8-diazabicyclo[3.2.1]octan-3-yl)-8-fluoro-2-((1-(pyrrolidin-1-ylmethyl)cyclopropyl)methoxy)pyrido[4,3-d]pyrimidin-7-yl)-5-ethynyl naphthalen-2-ol] | 8.1 nM |
| – | CCc1cccc2cc(O)cc(-c3ncc4c(C5C[C@H]6CC[C@@H](C5)N6)nc(OC[C@@]56CCCN5C[C@H](F)C6)nc4c3F)c12 (stereo partly drawn) [Example 81, 4-(4-((1R,5S)-8-azabicyclo[3.2.1]octan-3-yl)-8-fluoro-2-(((2R,7aS)-2-fluorotetrahydro-1H-pyrrolizin-7a(5H)-yl)methoxy)pyrido [4,3-d]pyrimidin-7-yl)-5-ethylnaphthalen-2-ol] | > 2500 nM |
| – | C#Cc1cc2c(N3C[C@H]4CC[C@@H](C3)N4)nc(OC[C@@]34CCCN3C[C@H](F)C4)nc2c(F)c1-c1cc(O)cc2ccc(F)c(C#C)c12 [Example 373, 4-(4-((1R,5S)-3,8-diazabicyclo[3.2.1]octan-3-yl)-6-ethynyl-8-fluoro-2-(((2R,7aS)-2-fluorotetrahydro-1H-pyrrolizin-7a(5H)-yl)methoxy)quinazolin-7-yl)-5-ethynyl-6-fluoronaphthalen-2-ol] | 30 nM |
| – | CCc1c(F)ccc2cc(O)cc(-c3ncc4c(N5C[C@H]6CC[C@@H](C5)S6)nc(OC[C@@]56CCCN5C[C@H](F)C6)nc4c3F)c12 [Example 24, 4-(4-((1R,5S)-8-thia-3-azabicyclo[3.2.1]octan-3-yl)-8-fluoro-2-(((2R, 7aS)-2-fluorotetrahydro-1H-pyrrolizin-7a(5H)-yl)methoxy)pyrido[4,3-d]pyrimidin-7-yl)-5-ethyl-6-fluoronaphthalen-2-ol] | 280 nM |
